Measured values as given in patent US11504075B2, “System, methods, and devices for calculating hypoxic fraction and equilibration rate of small molecular weight tracers using dynamic imaging” (UNIVERSITY HEALTH NETWORK, priority 2017, dated 2022).
Several values for one entry are separate records, joined by “and”; a condition that tells them apart may be missing. Equal entries are not always repeated.

Assays:
[1] = tested on: pancreatic ductal adenocarcinoma tumours; assay: Dynamic FAZA-PET imaging with two-tissue compartment model analysis in patients with pancreatic ductal adenocarcinoma; format: in vivo, human (patients)
Description: In an example experiment, the pharmacokinetics of FAZA in twenty patients with pancreatic ductal adenocarcinoma (PDAC) were modeled, applying principles of diffusive equilibration to interpret transport data calculated from a standard two-tissue compartment model.
Data was taken from twenty patients with biopsy-confirmed pancreatic ductal adenocarcinoma and FAZA-PET scans. Dynamic PET imaging scans were acquired over one hour following injection of FAZA. The one hour time-activity curves (TAC1) were each binned into thirty-four frames: twelve ten-second frames, followed by eight thirty-second frames, followed by seven two-minute frames, followed by seven five-minute frames. Patients returned for a static PET scan at two hours. CT scans used for co-registration were taken at the beginning of the dynamic and static PET scans.
PET activity data was obtained for regions of interest (ROIs) contoured using co-registered CT images. Tumour ROIs were contoured by a radiologist using the CT scan at two hours. This was co-registered manually to the initial CT scan and the two CT ROI sets were co-registered to the dynamic and static PET scans. In order to minimize effects resulting from high liver uptake of FAZA, aorta ROIs were contoured from the same range of PET/CT slices (along the cranial-caudal axis) as the tumour ROIs. At the level of the pancreas, the aorta is between 1.5 and 2 cm in diameter; to minimize partial volume effects, ROIs in the aorta were restricted to 0.75 cm in diameter and combined so that at least twenty-five PET voxels (3.9×3.9×3.3 mm^3 each) were imaged.
Dynamic PET TACs of FAZA were analyzed using the two-tissue compartment model:
Here, the concentration of tracer in the extravascular space of an imaged region has been partitioned into an unbound, diffusing component Cd as well as a component Cb that is bound by hypoxia. CIn is the “input” function, which was taken to be the imaged tracer concentration in the aorta, as described above. As noted earlier, k1 and k2 are the vascular influx and efflux coefficients and k3 is the tracer trapping rate. The total tracer concentration in an imaged region is C(t)=vbCIn(t)+(1−vb)[Cd(t)+Cb(t)], (5) where vb is the volume fraction occupied by blood in the region of interest. The above model was fitted to both the one-hour TACs (TAC1) as well as the combined two-hour TAC (TAC2) comprising the one-hour TACs plus static scans at two hours (in part to assess co-registration errors, which should be greater for TAC2). Coefficients (vb, k1, k2, and k3) were determined by minimizing
[formula] where Cmodel(ti) are the model activity values [Eqs. (3)-(5)] and Cdata(ti) are the measured values acquired during the N discrete time frames; N=34 for TAC1 and N=35 for TAC2. […] Equation 6 can be minimized with Cmodel(ti) calculated using trapezoidal integration.
An important tissue transport quantity is the distribution volume:
It represents the volume fraction of an imaged ROI in which tracer initially fills; i.e., rapidly equilibrates in. Patlak's formula,
To account for the unexpected correlations between k3 and vd, a model (shown schematically in FIG. 23) may be used in which an imaged voxel is comprised of two tissue types: one in which tracer reaches diffusive equilibration rapidly (with concentration C^(r)), and one in which it reaches equilibrium slowly (with concentration C^(s)): Cd(t)=vsCd^(s)+(1−vs)Cd^(r)(t). (11)
The factors of 1−vs and vs here ensure detailed balance amongst the compartments. kb is the binding rate due to hypoxia and keq represents the equilibration rate in the regions of slow-equilibration. This may be on the order of (0.1→1) hr-^1 when equilibration is driven by diffusion; see Eq. (2).
To distinguish kb and Keq in k3, voxel-scale k3 values were arranged into bins based on distribution volume values. […]

[2] = in most tissue; FAZA and similarly sized molecules; cited from earlier work

## O=[N+]([O-])c1nccn1[C@H]1O[C@H](CF)[C@@H](O)[C@@H]1O [FAZA, fluoroazomycinarabinoside]
[1]; all twenty patients, standard deviation 0.29 hrs^−1 across patients
  mean (population-averaged) equilibration rate keq in slow-equilibrating regions: 0.44 h⁻¹ and ~0.44 ± 0.29 h⁻¹
[1]; patient 1, fit of voxel-scale Keq to Eq. (18)
  equilibration rate keq: 0.45 h⁻¹
[1]; patient 2, fit of voxel-scale Keq to Eq. (18)
  equilibration rate keq: 0.52 h⁻¹
[1]; resected tumour exhibiting abundant apical mucin (FIG. 12 right)
  average distribution volume of tumour: 0.76
[1]; resected tumour exhibiting little mucin (FIG. 12 left)
  average distribution volume of tumour: 0.92
[1]; twenty PDAC patients
  vascular influx rate k1, population average of tumour-scale values: ~0.3 min⁻¹
[2]
  diffusivity D: ~10 μm^2/s
